From US12162888B2, “Carboxamides as ubiquitin-specific protease inhibitors” (Valo Early Discovery, Inc., priority 2018, dated 2024) come the findings set out here.

For orientation: IC50 means the concentration needed to halve the response being measured.

The structures appear in SMILES notation.

This assay has as its target T1, USP25 (USP25-His6, Boston Biochem E-546) (Homo sapiens, UniProt Q9UHP3).
T1 construct: His6 (C); purchased Boston Biochem E-546
T1 sequence (Q9UHP3 1-1055): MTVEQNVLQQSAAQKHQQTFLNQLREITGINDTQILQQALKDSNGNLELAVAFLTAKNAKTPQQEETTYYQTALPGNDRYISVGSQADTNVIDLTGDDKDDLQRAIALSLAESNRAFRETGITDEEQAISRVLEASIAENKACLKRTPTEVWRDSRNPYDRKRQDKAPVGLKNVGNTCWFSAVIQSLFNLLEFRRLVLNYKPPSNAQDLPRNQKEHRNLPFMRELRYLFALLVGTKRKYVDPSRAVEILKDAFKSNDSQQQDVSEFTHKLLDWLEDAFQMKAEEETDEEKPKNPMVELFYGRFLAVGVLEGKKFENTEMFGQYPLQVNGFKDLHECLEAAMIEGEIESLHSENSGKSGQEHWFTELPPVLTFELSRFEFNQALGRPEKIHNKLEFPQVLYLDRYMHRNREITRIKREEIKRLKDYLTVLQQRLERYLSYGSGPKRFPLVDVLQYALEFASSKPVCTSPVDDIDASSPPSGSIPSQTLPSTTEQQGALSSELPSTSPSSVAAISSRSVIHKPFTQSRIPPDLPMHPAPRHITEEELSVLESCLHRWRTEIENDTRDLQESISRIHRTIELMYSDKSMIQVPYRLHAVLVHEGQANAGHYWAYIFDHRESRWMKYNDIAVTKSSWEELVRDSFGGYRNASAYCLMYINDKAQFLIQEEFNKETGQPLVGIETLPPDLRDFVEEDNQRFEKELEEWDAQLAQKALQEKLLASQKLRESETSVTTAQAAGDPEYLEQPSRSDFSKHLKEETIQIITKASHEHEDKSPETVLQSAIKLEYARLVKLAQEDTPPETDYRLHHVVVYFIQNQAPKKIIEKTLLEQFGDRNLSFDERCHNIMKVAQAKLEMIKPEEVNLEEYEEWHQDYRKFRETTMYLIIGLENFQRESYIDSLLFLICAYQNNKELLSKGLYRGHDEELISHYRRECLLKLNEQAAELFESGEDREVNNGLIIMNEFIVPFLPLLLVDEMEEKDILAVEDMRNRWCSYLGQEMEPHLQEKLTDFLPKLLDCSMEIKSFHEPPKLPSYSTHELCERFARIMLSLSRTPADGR
Nature of the assay: Ubiquitin-Rhodamine 110 Assay for USP25 Activity, Example A-3. Format: biochemical. The conditions noted are these: Ubiquitin-Rhodamine 110 assay, Example A-3; read-out: USP25 A-3 IC50 range. The protocol: Example A-3: Biochemical Assay: Ubiquitin-Rhodamine 110 Assay for USP25 Activity
The assay was performed in a final volume of 9 μL in assay buffer containing 20 mM Tris-HCl (pH 8.0, (1M Tris-HCl, pH 8.0 solution; Corning 46-031-CM)), 3 mM BME (2-Mercaptoethanol; Sigma 63689-25ML-F), 0.03% BGG (0.22 μM filtered, Sigma, G7516-25G), and 0.01% Triton X-100 (Sigma, T9284-10L). Nanoliter quantities of 10-point, 3-fold serial dilution in DMSO was pre-dispensed into 1536 assay plates (Corning, #3724BC) for a final test concentration of 25 μM to 1.3 nM, top to lowest dose, respectively. Enzyme USP25, construct USP25-His6, (Boston Biochem E-546). Concentration and incubation times were optimized for the maximal signal-to-background while maintaining initial velocity conditions at a fixed substrate concentration. The final concentration of the enzyme in the assay was […]. Final substrate (Ub-Rh110; Ubiquitin-Rhodamine 110, R&D Systems #U-555) concentration was 25 nM with [Ub-Rh110]<<Km. 3 μL of 2× enzyme was added to assay plates (pre-stamped with compound) preincubated with […] for 30 minutes and then 3 μL of 2× Ub-Rh110 was added to assay plates. Plates were incubated for 45 minutes at room temperature before addition of 3 μL of stop solution (final concentration of 10 mM citric acid (Sigma, 251275-500G)). Fluorescence was read on the Envision (Excitation at 485 nm and Emission at 535 nm; Perkin Elmer) or on the PheraSTAR (Excitation at 485 nm and Emission at 535 nm; BMG Labtech).
For assay formats Example A-1(a), A-1(b), and A-2, data were reported as percent inhibition compared with control wells based on the following equation: % inh=1−((FLU−AveLow)/(AveHigh−AveLow)) where FLU=measured Fluorescence, AveLow=average Fluorescence of no enzyme control (n=16), and AveHighh=average Fluorescence of DMSO control (n=16). IC50 values were determined by curve fitting of the standard 4 parameter logistic fitting algorithm included in the Activity Base software package: IDBS XE Designer Model 205. Data is fitted using the Levenburg Marquardt algorithm.
Regarding `Cc1ccc2c(N)c(C(=O)N[C@H]3CCc4nc(N5C[C@@H](N)[C@H](C(F)F)C5)ncc4C3)sc2n1` [Example 381, 3-amino-N-[(6S)-2-[(3S,4R)-3-amino-4-(difluoromethyl)pyrrolidin-1-yl]-5,6,7,8-tetrahydroquinazolin-6-yl]-6-methylthieno[2,3-b]pyridine-2-carboxamide], the IC50 is more than 2 µM. In the case of `Cc1ccc2c(N)c(C(=O)N[C@@H]3CCc4nc(N5C[C@@H](N)[C@H](C(F)F)C5)ncc4C3)sc2n1` [Example 382, 3-amino-N-[(6R)-2-[(3S,4R)-3-amino-4-(difluoromethyl)pyrrolidin-1-yl]-5,6,7,8-tetrahydroquinazolin-6-yl]-6-methylthieno[2,3-b]pyridine-2-carboxamide] it was more than 2 µM; in that of `Cc1ccc2c(N)c(C(=O)N[C@@H]3CCc4nc(N5C[C@H](C(F)F)[C@@H](N)C5)ncc4C3)sc2n1` [Example 383, 3-amino-N-[(6R)-2-[(3R,4S)-3-amino-4-(difluoromethyl)pyrrolidin-1-yl]-5,6,7,8-tetrahydroquinazolin-6-yl]-6-methylthieno[2,3-b]pyridine-2-carboxamide], more than 2 µM.

Turning to `Cc1ccc2c(N)c(C(=O)N[C@H]3CCc4nc(N5C[C@H](CF)[C@@H](N)C5)ccc4C3)sc2n1` [Example 384, 3-amino-N-[(6S)-2-[(3R,4S)-3-amino-4-(fluoromethyl)pyrrolidin-1-yl]-5,6,7,8-tetrahydroquinolin-6-yl]-6-methylthieno[2,3-b]pyridine-2-carboxamide], the IC50 lay within 0.2 to 2 µM.

Turning to `Cc1ccc2c(N)c(C(=O)N[C@H]3CCc4nc(N5C[C@@H](CF)[C@H](N)C5)ccc4C3)sc2n1` [Example 385, 3-amino-N-[(6S)-2-[(3S,4R)-3-amino-4-(fluoromethyl)pyrrolidin-1-yl]-5,6,7,8-tetrahydroquinolin-6-yl]-6-methylthieno[2,3-b]pyridine-2-carboxamide], the half-maximal inhibitory concentration (IC50) was more than 2 µM. As for `Cc1ccc2c(N)c(C(=O)N[C@H]3CCc4nc(N5CC[C@](N)(CO)C5)ccc4C3)sc2n1` [Example 386, 3-amino-N-[(6S)-2-[(3R)-3-amino-3-(hydroxymethyl)pyrrolidin-1-yl]-5,6,7,8-tetrahydroquinolin-6-yl]-6-methylthieno[2,3-b]pyridine-2-carboxamide], the IC50 lay in the range of 0.2 to 2 µM.

As to `Cc1ccc2c(N)c(C(=O)N[C@H]3CCc4nc(N5CC[C@@](N)(CO)C5)ccc4C3)sc2n1` [Example 387, 3-amino-N-[(6S)-2-[(3S)-3-amino-3-(hydroxymethyl)pyrrolidin-1-yl]-5,6,7,8-tetrahydroquinolin-6-yl]-6-methylthieno[2,3-b]pyridine-2-carboxamide], the IC50 is more than 2 µM. Regarding `COC[C@@]1(N)CCN(c2ccc3c(n2)CC[C@H](NC(=O)c2sc4nc(C)ccc4c2N)C3)C1` [Example 388, 3-amino-N-[(6S)-2-[(3R)-3-amino-3-(methoxymethyl)pyrrolidin-1-yl]-5,6,7,8-tetrahydroquinolin-6-yl]-6-methylthieno[2,3-b]pyridine-2-carboxamide], the IC50 is 0.2 to 2 µM. For `COC[C@]1(N)CCN(c2ccc3c(n2)CC[C@H](NC(=O)c2sc4nc(C)ccc4c2N)C3)C1` [Example 389, 3-amino-N-[(6S)-2-[(3S)-3-amino-3-(methoxymethyl)pyrrolidin-1-yl]-5,6,7,8-tetrahydroquinolin-6-yl]-6-methylthieno[2,3-b]pyridine-2-carboxamide], the IC50 lay in the range of 0.2 to 2 µM. In the case of `Cc1ccc2c(N)c(C(=O)N[C@H]3CCc4nc(N5C[C@@H]6COC[C@]6(N)C5)ccc4C3)sc2n1` [Example 394, N-[(6S)-2-[(3aR,6aS)-3a-amino-hexahydro-1H-furo[3,4-c]pyrrol-5-yl]-5,6,7,8-tetrahydroquinolin-6-yl]-3-amino-6-methylthieno[2,3-b]pyridine-2-carboxamide] it was more than 2 µM; in that of `Cc1ccc2c(N)c(C(=O)N[C@H]3CCc4nc(N5C[C@H]6COC[C@@]6(N)C5)ccc4C3)sc2n1` [Example 395, N-[(6S)-2-[(3aS,6aR)-3a-amino-hexahydro-1H-furo[3,4-c]pyrrol-5-yl]-5,6,7,8-tetrahydroquinolin-6-yl]-3-amino-6-methylthieno[2,3-b]pyridine-2-carboxamide], 0.2 to 2 µM. As for `Cc1ccc2c(N)c(C(=O)N[C@H]3CCc4nc(N5C[C@H]6COC[C@@H](C5)[C@H]6N)ccc4C3)sc2n1` [Example 396], the IC50 is 0.2 to 2 µM. In the case of `Cc1ccc2c(N)c(C(=O)N[C@H]3CCc4nc(N5C[C@H]6COC[C@@H](C5)[C@@H]6N)ccc4C3)sc2n1` [Example 397] it was 0.2 to 2 µM; in that of `Cc1ccc2c(N)c(C(=O)N[C@H]3CCc4nc(N5CC6(C[C@@H](N)CO6)C5)ccc4C3)sc2n1` [Example 398, 3-amino-N-[(6S)-2-[(7R)-7-amino-5-oxa-2-azaspiro[3.4]octan-2-yl]-5,6,7,8-tetrahydroquinolin-6-yl]-6-methylthieno[2,3-b]pyridine-2-carboxamide], 0.2 to 2 µM; in that of `Cc1ccc2c(N)c(C(=O)N[C@H]3CCc4nc(N5CC6(C[C@H](N)CO6)C5)ccc4C3)sc2n1` [Example 399, 3-amino-N-[(6S)-2-[(7S)-7-amino-5-oxa-2-azaspiro[3.4]octan-2-yl]-5,6,7,8-tetrahydroquinolin-6-yl]-6-methylthieno[2,3-b]pyridine-2-carboxamide], 0.2 to 2 µM. As to `CCn1ccc2cc(C(=O)N[C@H]3CCc4nc(N5C[C@H](NC)[C@@H](OC)C5)ccc4C3)cnc21` [Example 402, 1-ethyl-N-[(6S)-2-[(3S,4S)-3-methoxy-4-(methylamino)pyrrolidin-1-yl]-5,6,7,8-tetrahydroquinolin-6-yl]-1H-pyrrolo[2,3-b]pyridine-5-carboxamide], the IC50 is more than 2 µM. Turning to `CCn1ccc2cc(C(=O)N[C@H]3CCc4nc(N5C[C@@H](N)C6(COC6)C5)ccc4C3)cnc21` [Example 404, N-[(6S)-2-[(8S)-8-amino-2-oxa-6-azaspiro[3.4]octan-6-yl]-5,6,7,8-tetrahydroquinolin-6-yl]-1-ethyl-1H-pyrrolo[2,3-b]pyridine-5-carboxamide], the half-inhibitory concentration (IC50) was more than 2 µM.

Consider `Cc1ccc2c(N)c(C(=O)N[C@H]3CCc4nc(N5CC[C@@]6(C5)OCC[C@H]6N)ccc4C3)sc2n1` [Example 405, 3-amino-N-[(6S)-2-[(4R,5S)-4-amino-1-oxa-7-azaspiro[4.4]nonan-7-yl]-5,6,7,8-tetrahydroquinolin-6-yl]-6-methylthieno[2,3-b]pyridine-2-carboxamide], for which the IC50 lay within 0.2 to 2 µM.

Take `Cc1ccc2c(N)c(C(=O)N[C@H]3CCc4nc(N5CC[C@]6(C5)OCC[C@@H]6N)ccc4C3)sc2n1` [Example 406, 3-amino-N-[(6S)-2-[(4S,5R)-4-amino-1-oxa-7-azaspiro[4.4]nonan-7-yl]-5,6,7,8-tetrahydroquinolin-6-yl]-6-methylthieno[2,3-b]pyridine-2-carboxamide]: the IC50 is more than 2 µM.
